Assay results reported in patent US8906925B2, “Pyrido[4,3-B]indoles containing rigid moieties” (Medivation Technologies, Inc., priority 2008, dated 2014).
Where two headings read alike, the source gives them in different places.

How the values were obtained:
[1] = biological target: human recombinant serotonin 5-HT2A receptor (Homo sapiens, UniProt P28223); experiment: Aequorin functional assay, serotonin 5-HT2A (CHO-K1); type: cell-based; set-up: host or cells: CHO-K1 cells co-expressing mitochondrial apoaequorin and Gα16
Sequence of human recombinant serotonin 5-HT2A receptor (P28223 whole entry): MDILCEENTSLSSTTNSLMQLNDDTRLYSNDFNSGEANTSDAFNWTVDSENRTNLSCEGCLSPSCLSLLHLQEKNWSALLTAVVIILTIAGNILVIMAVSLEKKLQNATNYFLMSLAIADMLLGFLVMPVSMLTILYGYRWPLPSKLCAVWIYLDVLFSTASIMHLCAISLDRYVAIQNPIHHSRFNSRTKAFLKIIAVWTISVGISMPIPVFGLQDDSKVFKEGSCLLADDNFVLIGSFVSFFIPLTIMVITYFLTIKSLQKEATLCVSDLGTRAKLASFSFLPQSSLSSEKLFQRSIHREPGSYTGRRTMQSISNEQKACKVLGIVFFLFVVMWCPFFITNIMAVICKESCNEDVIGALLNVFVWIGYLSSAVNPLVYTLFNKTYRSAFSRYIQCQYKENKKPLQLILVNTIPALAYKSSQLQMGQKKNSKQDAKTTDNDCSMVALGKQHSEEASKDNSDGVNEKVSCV
Source text: (§1) To study the functional activity of compounds of the invention on the human recombinant dopamine D2L with Aequorin, GTPγS and cAMP functional assays and on the human recombinant serotonin 5-HT2A receptor with Aequorin, CHO-K1 cell lines expressing D2L or 5-HT2A recombinant receptor, mitochondrial apoaequorin and Gα16 were used for the Aequorin assay. CHO-K1 cell line expressing the recombinant D2L receptor was used for the cAMP assay and was amplified to prepare membranes used for the GTPγS assay.
Cells were incubated at room temperature for at least 4 h with Coelenterazine h (Molecular Probes). Dose response curves with reference compounds were performed before testing the compounds of the invention. D2L reference agonist and antagonist were quinpirol (Tocris, 1061) and haloperidol (Tocris, 0931), respectively. […] For agonist testing, 50 μL of cell suspension were injected on 50 μL of test compound or reference agonist plated in a 96-well plate. The resulting emission of light was recorded using the Hamamatsu Functional Drug Screening System 6000 (FDSS 6000). Following an incubation of 15 min after the first injection, 100 μL of reference agonist at a concentration corresponding to its EC80 was injected on the 100 μL of the mixture of cell suspension and test compound, for antagonist testing. The resulting emission of light was recorded using the same luminometer as for agonist testing. To standardize the emission of recorded light (determination of the “100% signal”) across plates and across different experiments, some of the wells contained 100 μM digitonin or a saturating concentration of ATP (20 μM). Plates also contained the reference agonist at a concentration equivalent to the EC100 and EC80 obtained during the test validation.

[2] = biological target: T1, human dopamine D2L receptor (Homo sapiens, UniProt P14416); experiment: cAMP functional assay, dopamine D2L (CHO-K1, HTRF); type: cell-based; set-up: host or cells: CHO-K1 co-expressing mitochondrial apoaequorin and Gα16; details: for inhibition at 0.005 µM: antagonist concentration 5 nM; for inhibition at 0.05 µM: antagonist concentration 50 nM; for inhibition at 0.5 µM: antagonist concentration 500 nM; for inhibition at 5 µM: antagonist concentration 5000 nM; for inhibition at 15 µM: antagonist concentration 15000 nM
T1 sequence (P14416 whole entry): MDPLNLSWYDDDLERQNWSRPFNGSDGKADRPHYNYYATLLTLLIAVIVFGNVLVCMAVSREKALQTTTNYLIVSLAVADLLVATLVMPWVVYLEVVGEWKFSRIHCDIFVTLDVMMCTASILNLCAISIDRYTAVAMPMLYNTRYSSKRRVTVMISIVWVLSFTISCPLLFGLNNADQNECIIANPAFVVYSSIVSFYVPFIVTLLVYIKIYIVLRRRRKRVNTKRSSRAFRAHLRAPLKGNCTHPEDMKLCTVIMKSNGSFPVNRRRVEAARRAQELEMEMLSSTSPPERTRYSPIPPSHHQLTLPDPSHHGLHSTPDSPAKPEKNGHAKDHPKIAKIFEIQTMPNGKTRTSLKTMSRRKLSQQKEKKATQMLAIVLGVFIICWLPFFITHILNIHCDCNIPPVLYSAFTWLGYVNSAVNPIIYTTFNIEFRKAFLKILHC
Source text: as §1
The test was performed in 96 well plates. For agonist testing, 12 μL of cells (2,500 cells/well) were mixed with 6 μL of increasing concentrations of test compound or reference agonist and 6 μL of Forskolin […] (Calbiochem, cat n^o 344270). For antagonist testing, 12 μL of cells (2,500 cells/well) were mixed with 6 μL of test compound or reference antagonist at increasing concentrations. After incubation of 10 min at room temperature, 6 μL of a mix of Forskolin […] final concentration and the reference agonist at a final concentration corresponding to the EC80 were added. The plates were then incubated for 30 min at room temperature.

[3] = biological target: T1, human dopamine D2L receptor; experiment: GTPγS functional assay, dopamine D2L (CHO-K1 membrane extracts); type: biochemical; set-up: host or cells: CHO-K1 co-expressing mitochondrial apoaequorin and Gα16; details: for inhibition at 0.005 µM: antagonist concentration 5 nM; for inhibition at 0.05 µM: antagonist concentration 50 nM; for inhibition at 0.5 µM: antagonist concentration 500 nM; for inhibition at 5 µM: antagonist concentration 5000 nM; for inhibition at 15 µM: antagonist concentration 15000 nM
Source text: as §1
GTPγS Assay Procedure: Assay buffer [20 mM HEPES pH 7.4; 100 mM NaCl, 10 μg/mL saponin, 30 mM MgCl2]; Membranes [Recombinant CHO-K1-D2L membrane extracts thawed on ice and diluted in assay buffer to give 1 mg/mL (10 μg/10 μL) and kept on ice]; GDP [diluted in assay buffer to give […] final concentration]; Beads [PVT-WGA (Amersham, RPNQ0001), diluted in assay buffer at 25 mg/mL (0.25 mg/10 μL)]; GTPγ35S [(PerkinElmer NEG030X), diluted in assay buffer to give 0.1 nM final concentration]; Ligand [Quinpirol (Tocris, 1061) as reference agonist and haloperidol (Tocris, 0931) as reference antagonist, diluted in assay buffer]. Membranes were mixed with GDP (volume:volume) and incubated for at least 15 min on ice. In parallel, GTPγ[^35S] was mixed with the beads (volume:volume) just before starting the reaction. For agonist testing, the following reagents are successively added in the wells of an Optiplate (Perkin Elmer): 50 μL of test or reference ligand, 20 μL of the membranes:GDP mix, 10 μL of assay buffer and 20 μL of the GTPγ[^35S]:beads mix. For antagonist testing, the following reagents were successively added in the wells of an Optiplate (Perkin Elmer): 50 μL of test or reference ligand, 20 μL of the membranes:GDP mix, and then after an incubation of 15 min at room temperature, 10 μL of reference agonist at historical EC80 concentration and 20 μL of the GTPγ[^35S]:beads mix. The plates were covered with a top seal, mixed on an orbital shaker for 2 min, and then incubated for 1 h at room temperature. Then the plates were centrifuged for 10 min at 2000 rpm, incubated at room temperature 1 h and counted for 1 min/well with a Perkin Elmer TopCount reader. Compounds were tested for antagonist activity at the human dopamine D2L receptor (FAST-0101G) at the following nanomolar concentrations, in duplicate: Antagonist (nM): 5, 15, 50, 150, 500, 1500, 5000, 15000.

[4] = antagonist concentration 150 nM
[5] = antagonist concentration 1500 nM
[6] = 0.03, 0.1, 0.3, 1, 3 and 10 mg/kg p.o.
[7] = CHO-K1, read-out: 5-HT2A Antagonist % Inhibition (Aequorin)
[8] = 0.03, 0.1, 0.3, 1 and 3 mg/kg p.o.

Protocol for Sprague Dawley rats: The two-trial object recognition paradigm developed by Ennaceur and Delacour in the rat was used as a model of episodic short term memory.
The experiments were carried out using 174-186 male Sprague Dawley rats (Centre d'Elevage R. Janvier, B. P. 55, 53940 Le Genest-Saint-Isle, F.). 143-146 rats met inclusion criteria described in the experimental procedure. In addition, 24 satellite animals were used for pharmacokinetic analysis. The rats (main study and pharmacokinetic study) weighed between 233 and 283 g (6-7 weeks old) at the beginning of the experiments. […] Rats were allowed to acclimate to environmental conditions for at least 5 days prior to experimentation. Rats were numbered by marking their tail with indelible markers.
Each solution was prepared fresh each day of dosing. […] No corrective factor is required. […] PEG200 was dissolved in water for injection. The volume of administration was 10 mL/kg body weight for the oral route of administration and 5 mL/kg body weight for intraperitoneal route of administration. Each solution was prepared fresh each day of dosing.
The experimental arena is a square wooden box (60×60×40 cm) painted dark blue, with 15×15 cm black painted squares under a clear plexiglass floor. The arena and the objects were cleaned using water between each trial in order to avoid odour trails left by rats. The arena was placed in a dark room illuminated only by halogen lamps oriented towards the ceiling and giving an uniform dim light in the box (around 60 lux). Animals to be tested were placed in the experimental room at least 30 min before testing.
Rats were submitted to two trials spaced by an intertrial interval of 24 h. During the first trial (acquisition trial, T1), rats were placed in the arena containing 2 identical objects and time required by each animal to complete 15 sec. of object exploration was determined with a cut-off time of 4 min. Exploration was considered to be directing the nose at a distance less than 2 cm from the object and/or touching the object. For the second trial (testing trial, T2), one of the objects presented in the first trial was replaced by an unknown object (novel object), rats were placed back in the arena for 3 min and exploration of each object was determined. For both T1 and T2, locomotor activity of rats was scored.
Using group numbers of 18, rats were randomized to constitute the following groups: 1) Vehicle (5% PEG200 in water) p.o.; 2) Compound No. 88 or 90 (0.03 mg/kg) p.o.; 3.
The following parameters were measured: 1) Time required to achieve 15 sec. of object exploration on T1 (sec.); 2) Locomotor activity on T1 (number of crossed lines); 3) Time spent in active exploration of the familiar object on T2 (sec.)=TF; 4) Time spent in active exploration of the novel object on T2 (sec.)=TN; 5) Locomotor activity on T2 (number of crossed lines).
All parameters were analysed using SAS software (version 8.2). Statistical tests were performed with an alpha level of 0.05.

| Compound | inhibition at 0.005 µM [2] | inhibition at […] ([2]; antagonist concentration 15 nM) | inhibition at 0.05 µM [2] | inhibition at […] [2, 4] | inhibition at 0.5 µM [2] | inhibition at […] [2, 5] | inhibition at 5 µM [2] | inhibition at 15 µM [2] | inhibition at 0.005 µM [3] | inhibition at […] ([3]; antagonist concentration 15 nM) | inhibition at 0.05 µM [3] | inhibition at […] [3, 4] | inhibition at 0.5 µM [3] | inhibition at […] [3, 5] | inhibition at 5 µM [3] | inhibition at 15 µM [3] | memory performance (TN−TF and RI) compared to vehicle, ANOVA + Dunnett's test (Sprague Dawley rats; 1 mg/kg p.o.) | also measured |
| --- | --- | --- | --- | --- | --- | --- | --- | --- | --- | --- | --- | --- | --- | --- | --- | --- | --- | --- |
| C/C(=C\n1c2c(c3cc(Cl)ccc31)CN(C)CC2)c1ccc(F)cc1 [Compound 83, (E)-8-chloro-5-(2-(4-fluorophenyl)prop-1-enyl)-2,3,4,5-tetrahydro-2-methyl-1H-pyrido[4,3-b]indole] | 75.5% | 97.8% | 98.2% | 104% | 106% | 107% | 106% | 111% | 51.8% | 90% | 104% | 109% | 118% | 113% | 111% | 105% | – | inhibition at 0.005 µM ([1]; CHO-K1, Antagonist concentration 5 nM, read-out: 5-HT2A Antagonist % Inhibition (Aequorin)): 85.4%; inhibition at […] ([1]; CHO-K1, Antagonist concentration 15 nM): 96.6%; inhibition at 0.05 µM ([1]; CHO-K1, Antagonist concentration 50 nM, read-out: 5-HT2A Antagonist % Inhibition (Aequorin)): 98.5%; inhibition at […] ([1]; CHO-K1, Antagonist concentration 150 nM): 98.7%; inhibition at 0.5 µM ([1]; CHO-K1, Antagonist concentration 500 nM, read-out: 5-HT2A Antagonist % Inhibition (Aequorin)): 98.8%; inhibition at […] ([1]; CHO-K1, Antagonist concentration 1500 nM): 98.9%; inhibition at 5 µM ([1]; CHO-K1, Antagonist concentration 5000 nM, read-out: 5-HT2A Antagonist % Inhibition (Aequorin)): 97.8%; inhibition at 15 µM ([1]; CHO-K1, Antagonist concentration 15000 nM, read-out: 5-HT2A Antagonist % Inhibition (Aequorin)): 97% |
| C/C(=C\n1c2c(c3cc(C)ccc31)CN(C)CC2)c1ccncc1 [Compound 88, (E)-2,3,4,5-tetrahydro-2,8-dimethyl-5-(2-(pyridin-4-yl)prop-1-enyl)-1H-pyrido[4,3-b]indole] | – | – | – | – | – | – | – | – | – | – | – | – | – | – | – | – | reached the threshold of statistical significance | memory performance (TN−TF and RI) compared to vehicle, ANOVA + Dunnett's test (Sprague Dawley rats; 0.3 mg/kg p.o.): reached the threshold of statistical significance; memory performance (TN−TF and RI values) (Sprague Dawley rats; [6]): improved; number of "good learners" (Δ≧5 sec.) (Sprague Dawley rats; [6]): confirmed the cognitive enhancing activity; cognitive enhancing activity (delay of onset of natural forgetting) (Sprague Dawley rats; single oral administration 0.03, 0.1, 0.3, 1, 3 and 10 mg/kg, 30 min before T1): displayed a cognitive enhancing activity |
| C/C(=C\n1c2c(c3cc(Cl)ccc31)CN(C)CC2)c1ccncc1 [Compound 90, (E)-8-chloro-2,3,4,5-tetrahydro-2-methyl-5-(2-(pyridin-4-yl)prop-1-enyl)-1H-pyrido[4,3-b]indole] | 84.1% | 91.7% | 94.7% | 94% | 93.7% | 100% | 100% | 102% | 59% | 101% | 106% | 109% | 109% | 116% | 112% | 116% | reached the threshold of statistical significance | 5-HT2A Agonist % Activation (Aequorin) ([1]; Agonist concentration 10 nM): 0.62%; 5-HT2A Agonist % Activation (Aequorin) ([1]; Agonist concentration 30 nM): 0.26%; 5-HT2A Agonist % Activation (Aequorin) ([1]; Agonist concentration 100 nM): 0.27%; 5-HT2A Agonist % Activation (Aequorin) ([1]; Agonist concentration 300 nM): 0.18%; 5-HT2A Agonist % Activation (Aequorin) ([1]; Agonist concentration 1000 nM): 0.11%; 5-HT2A Agonist % Activation (Aequorin) ([1]; Agonist concentration 3000 nM): 0.04%; 5-HT2A Agonist % Activation (Aequorin) ([1]; Agonist concentration 10000 nM): 0.02%; 5-HT2A Agonist % Activation (Aequorin) ([1]; Agonist concentration 30000 nM): 0.49%; inhibition at 0.005 µM [1, 7]: 73%; inhibition at 0.05 µM [1, 7]: 98.5%; inhibition at 0.5 µM [1, 7]: 98.4%; inhibition at 5 µM [1, 7]: 98.5%; inhibition at 15 µM [1, 7]: 97.6%; memory performance (TN−TF and RI) compared to vehicle, ANOVA + Dunnett's test (Sprague Dawley rats; 0.1 mg/kg p.o.): reached the threshold of statistical significance; memory performance (TN−TF and RI values) (Sprague Dawley rats; [8]): improved; number of "good learners" (Δ≧5 sec.) (Sprague Dawley rats; [8]): confirmed the cognitive enhancing activity; locomotor activity assessed during T1 and T2 (Sprague Dawley rats; rat, in vivo, po, 3 mg/kg): no statistically significant effects |
